According to PubChem BioAssay (NCI):
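Assay format: 96-well plates, 48-hour exposure. Definition used: TGI = concentration required for complete inhibition of growth.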

tested on: NCI-H226 lung; experiment: NCI-60 cell line screen, 48 h

Structure (SMILES)	TGI
CC1(C)N=[N+]([O-])C1(C)C	> 100 µM
[N-]=[N+]=NC[C@H]1OCO[C@H](CN=[N+]=[N-])[C@@H](OCCOCCCl)[C@@H]1OCCOCCCl	> 100 µM
c1ccc(-c2nc(-c3ccccc3SSc3ccccc3-c3nc(-c4ccccc4)nn3-c3ccccc3)n(-c3ccccc3)n2)cc1	> 100 µM
C[C@@H](NC(=O)[C@@H]1C[C@]1(C)COC(=O)c1cc([N+](=O)[O-])cc([N+](=O)[O-])c1)c1cccc2ccccc12	> 100 µM

tested on: NCI-H23 lung; experiment: NCI-60 cell line screen, 48 h

Structure (SMILES)	TGI
CC(C)(C)OC(=O)NCCCCC1NC(=O)[C@@H]2Cc3c([nH]c4ccccc34)C(C3CCCCC3)N2C1=O (some centres not stated)	> 100 µM
CC(C)(C)N1CSC(=S)N(Cc2ccco2)C1	11.1 µM
CC1(C)N=[N+]([O-])C1(C)C	> 100 µM
[N-]=[N+]=NC[C@H]1OCO[C@H](CN=[N+]=[N-])[C@@H](OCCOCCCl)[C@@H]1OCCOCCCl	> 100 µM
c1ccc(-c2nc(-c3ccccc3SSc3ccccc3-c3nc(-c4ccccc4)nn3-c3ccccc3)n(-c3ccccc3)n2)cc1	> 100 µM
Cc1nc2n(c1/C=C1/C(=O)Nc3cccc(Cl)c31)CCS2	> 100 µM
C[C@@H](NC(=O)[C@@H]1C[C@]1(C)COC(=O)c1cc([N+](=O)[O-])cc([N+](=O)[O-])c1)c1cccc2ccccc12	> 100 µM

tested on: NCI-H460 lung; experiment: NCI-60 cell line screen, 48 h

Structure (SMILES)	TGI
CC(C)(C)OC(=O)NCCCCC1NC(=O)[C@@H]2Cc3c([nH]c4ccccc34)C(C3CCCCC3)N2C1=O (some centres not stated)	> 100 µM
CC(C)(C)N1CSC(=S)N(Cc2ccco2)C1	22.5 µM
CC1(C)N=[N+]([O-])C1(C)C	> 100 µM
[N-]=[N+]=NC[C@H]1OCO[C@H](CN=[N+]=[N-])[C@@H](OCCOCCCl)[C@@H]1OCCOCCCl	> 100 µM
c1ccc(-c2nc(-c3ccccc3SSc3ccccc3-c3nc(-c4ccccc4)nn3-c3ccccc3)n(-c3ccccc3)n2)cc1	> 100 µM
Cc1nc2n(c1/C=C1/C(=O)Nc3cccc(Cl)c31)CCS2	> 100 µM
C[C@@H](NC(=O)[C@@H]1C[C@]1(C)COC(=O)c1cc([N+](=O)[O-])cc([N+](=O)[O-])c1)c1cccc2ccccc12	> 100 µM

tested on: NCI-H522 lung; experiment: NCI-60 cell line screen, 48 h

Structure (SMILES)	TGI
CC(C)(C)OC(=O)NCCCCC1NC(=O)[C@@H]2Cc3c([nH]c4ccccc34)C(C3CCCCC3)N2C1=O (some centres not stated)	> 100 µM
CC(C)(C)N1CSC(=S)N(Cc2ccco2)C1	12 µM
CC1(C)N=[N+]([O-])C1(C)C	> 100 µM
[N-]=[N+]=NC[C@H]1OCO[C@H](CN=[N+]=[N-])[C@@H](OCCOCCCl)[C@@H]1OCCOCCCl	> 100 µM
Cc1nc2n(c1/C=C1/C(=O)Nc3cccc(Cl)c31)CCS2	> 100 µM

tested on: NCI/ADR-RES ovarian; experiment: NCI-60 cell line screen, 48 h

Structure (SMILES)	TGI
CC(C)(C)OC(=O)NCCCCC1NC(=O)[C@@H]2Cc3c([nH]c4ccccc34)C(C3CCCCC3)N2C1=O (some centres not stated)	> 100 µM
CC(C)(C)N1CSC(=S)N(Cc2ccco2)C1	18.4 µM
CC1(C)N=[N+]([O-])C1(C)C	> 100 µM
[N-]=[N+]=NC[C@H]1OCO[C@H](CN=[N+]=[N-])[C@@H](OCCOCCCl)[C@@H]1OCCOCCCl	> 100 µM
c1ccc(-c2nc(-c3ccccc3SSc3ccccc3-c3nc(-c4ccccc4)nn3-c3ccccc3)n(-c3ccccc3)n2)cc1	> 100 µM
Cc1nc2n(c1/C=C1/C(=O)Nc3cccc(Cl)c31)CCS2	> 100 µM
C[C@@H](NC(=O)[C@@H]1C[C@]1(C)COC(=O)c1cc([N+](=O)[O-])cc([N+](=O)[O-])c1)c1cccc2ccccc12	> 100 µM

tested on: OVCAR-3 ovarian; experiment: NCI-60 cell line screen, 48 h

Structure (SMILES)	TGI
CC(C)(C)OC(=O)NCCCCC1NC(=O)[C@@H]2Cc3c([nH]c4ccccc34)C(C3CCCCC3)N2C1=O (some centres not stated)	47.5 µM
CC(C)(C)N1CSC(=S)N(Cc2ccco2)C1	4.94 µM
CC1(C)N=[N+]([O-])C1(C)C	> 100 µM
[N-]=[N+]=NC[C@H]1OCO[C@H](CN=[N+]=[N-])[C@@H](OCCOCCCl)[C@@H]1OCCOCCCl	> 100 µM
c1ccc(-c2nc(-c3ccccc3SSc3ccccc3-c3nc(-c4ccccc4)nn3-c3ccccc3)n(-c3ccccc3)n2)cc1	> 100 µM
Cc1nc2n(c1/C=C1/C(=O)Nc3cccc(Cl)c31)CCS2	> 100 µM
C[C@@H](NC(=O)[C@@H]1C[C@]1(C)COC(=O)c1cc([N+](=O)[O-])cc([N+](=O)[O-])c1)c1cccc2ccccc12	> 100 µM

tested on: OVCAR-4 ovarian; experiment: NCI-60 cell line screen, 48 h

Structure (SMILES)	TGI
CC(C)(C)OC(=O)NCCCCC1NC(=O)[C@@H]2Cc3c([nH]c4ccccc34)C(C3CCCCC3)N2C1=O (some centres not stated)	> 100 µM
CC(C)(C)N1CSC(=S)N(Cc2ccco2)C1	26.7 µM
CC1(C)N=[N+]([O-])C1(C)C	> 100 µM
[N-]=[N+]=NC[C@H]1OCO[C@H](CN=[N+]=[N-])[C@@H](OCCOCCCl)[C@@H]1OCCOCCCl	> 100 µM
C[C@@H](NC(=O)[C@@H]1C[C@]1(C)COC(=O)c1cc([N+](=O)[O-])cc([N+](=O)[O-])c1)c1cccc2ccccc12	> 100 µM

tested on: OVCAR-5 ovarian; experiment: NCI-60 cell line screen, 48 h

Structure (SMILES)	TGI
CC(C)(C)OC(=O)NCCCCC1NC(=O)[C@@H]2Cc3c([nH]c4ccccc34)C(C3CCCCC3)N2C1=O (some centres not stated)	> 100 µM
CC(C)(C)N1CSC(=S)N(Cc2ccco2)C1	11.7 µM
CC1(C)N=[N+]([O-])C1(C)C	> 100 µM
c1ccc(-c2nc(-c3ccccc3SSc3ccccc3-c3nc(-c4ccccc4)nn3-c3ccccc3)n(-c3ccccc3)n2)cc1	> 100 µM
Cc1nc2n(c1/C=C1/C(=O)Nc3cccc(Cl)c31)CCS2	> 100 µM
C[C@@H](NC(=O)[C@@H]1C[C@]1(C)COC(=O)c1cc([N+](=O)[O-])cc([N+](=O)[O-])c1)c1cccc2ccccc12	> 100 µM

tested on: OVCAR-8 ovarian; experiment: NCI-60 cell line screen, 48 h

Structure (SMILES)	TGI
CC(C)(C)OC(=O)NCCCCC1NC(=O)[C@@H]2Cc3c([nH]c4ccccc34)C(C3CCCCC3)N2C1=O (some centres not stated)	> 100 µM
CC(C)(C)N1CSC(=S)N(Cc2ccco2)C1	5.63 µM
CC1(C)N=[N+]([O-])C1(C)C	> 100 µM
[N-]=[N+]=NC[C@H]1OCO[C@H](CN=[N+]=[N-])[C@@H](OCCOCCCl)[C@@H]1OCCOCCCl	> 100 µM
c1ccc(-c2nc(-c3ccccc3SSc3ccccc3-c3nc(-c4ccccc4)nn3-c3ccccc3)n(-c3ccccc3)n2)cc1	> 100 µM
Cc1nc2n(c1/C=C1/C(=O)Nc3cccc(Cl)c31)CCS2	88.4 µM
C[C@@H](NC(=O)[C@@H]1C[C@]1(C)COC(=O)c1cc([N+](=O)[O-])cc([N+](=O)[O-])c1)c1cccc2ccccc12	> 100 µM

tested on: PC-3 prostate; experiment: NCI-60 cell line screen, 48 h

Structure (SMILES)	TGI
CC(C)(C)OC(=O)NCCCCC1NC(=O)[C@@H]2Cc3c([nH]c4ccccc34)C(C3CCCCC3)N2C1=O (some centres not stated)	> 100 µM
CC(C)(C)N1CSC(=S)N(Cc2ccco2)C1	13.7 µM
CC1(C)N=[N+]([O-])C1(C)C	> 100 µM
[N-]=[N+]=NC[C@H]1OCO[C@H](CN=[N+]=[N-])[C@@H](OCCOCCCl)[C@@H]1OCCOCCCl	> 100 µM
c1ccc(-c2nc(-c3ccccc3SSc3ccccc3-c3nc(-c4ccccc4)nn3-c3ccccc3)n(-c3ccccc3)n2)cc1	> 100 µM
Cc1nc2n(c1/C=C1/C(=O)Nc3cccc(Cl)c31)CCS2	> 100 µM
C[C@@H](NC(=O)[C@@H]1C[C@]1(C)COC(=O)c1cc([N+](=O)[O-])cc([N+](=O)[O-])c1)c1cccc2ccccc12	> 100 µM

tested on: RPMI-8226 leukemia; experiment: NCI-60 cell line screen, 48 h

Structure (SMILES)	TGI
CC(C)(C)OC(=O)NCCCCC1NC(=O)[C@@H]2Cc3c([nH]c4ccccc34)C(C3CCCCC3)N2C1=O (some centres not stated)	41 µM
CC(C)(C)N1CSC(=S)N(Cc2ccco2)C1	0.697 µM
CC1(C)N=[N+]([O-])C1(C)C	> 100 µM
[N-]=[N+]=NC[C@H]1OCO[C@H](CN=[N+]=[N-])[C@@H](OCCOCCCl)[C@@H]1OCCOCCCl	> 100 µM
c1ccc(-c2nc(-c3ccccc3SSc3ccccc3-c3nc(-c4ccccc4)nn3-c3ccccc3)n(-c3ccccc3)n2)cc1	> 100 µM
Cc1nc2n(c1/C=C1/C(=O)Nc3cccc(Cl)c31)CCS2	> 100 µM
C[C@@H](NC(=O)[C@@H]1C[C@]1(C)COC(=O)c1cc([N+](=O)[O-])cc([N+](=O)[O-])c1)c1cccc2ccccc12	> 100 µM

tested on: RXF 393 renal; experiment: NCI-60 cell line screen, 48 h

Structure (SMILES)	TGI
CC(C)(C)OC(=O)NCCCCC1NC(=O)[C@@H]2Cc3c([nH]c4ccccc34)C(C3CCCCC3)N2C1=O (some centres not stated)	25.6 µM
CC(C)(C)N1CSC(=S)N(Cc2ccco2)C1	19.4 µM
CC1(C)N=[N+]([O-])C1(C)C	> 100 µM
[N-]=[N+]=NC[C@H]1OCO[C@H](CN=[N+]=[N-])[C@@H](OCCOCCCl)[C@@H]1OCCOCCCl	> 100 µM
c1ccc(-c2nc(-c3ccccc3SSc3ccccc3-c3nc(-c4ccccc4)nn3-c3ccccc3)n(-c3ccccc3)n2)cc1	> 100 µM
Cc1nc2n(c1/C=C1/C(=O)Nc3cccc(Cl)c31)CCS2	50.6 µM
C[C@@H](NC(=O)[C@@H]1C[C@]1(C)COC(=O)c1cc([N+](=O)[O-])cc([N+](=O)[O-])c1)c1cccc2ccccc12	> 100 µM

tested on: SF-268 CNS; experiment: NCI-60 cell line screen, 48 h

Structure (SMILES)	TGI
CC(C)(C)OC(=O)NCCCCC1NC(=O)[C@@H]2Cc3c([nH]c4ccccc34)C(C3CCCCC3)N2C1=O (some centres not stated)	> 100 µM
CC(C)(C)N1CSC(=S)N(Cc2ccco2)C1	15.1 µM
CC1(C)N=[N+]([O-])C1(C)C	> 100 µM
[N-]=[N+]=NC[C@H]1OCO[C@H](CN=[N+]=[N-])[C@@H](OCCOCCCl)[C@@H]1OCCOCCCl	> 100 µM
c1ccc(-c2nc(-c3ccccc3SSc3ccccc3-c3nc(-c4ccccc4)nn3-c3ccccc3)n(-c3ccccc3)n2)cc1	> 100 µM
Cc1nc2n(c1/C=C1/C(=O)Nc3cccc(Cl)c31)CCS2	52.1 µM
C[C@@H](NC(=O)[C@@H]1C[C@]1(C)COC(=O)c1cc([N+](=O)[O-])cc([N+](=O)[O-])c1)c1cccc2ccccc12	> 100 µM

tested on: SF-295 CNS; experiment: NCI-60 cell line screen, 48 h

Structure (SMILES)	TGI
CC(C)(C)OC(=O)NCCCCC1NC(=O)[C@@H]2Cc3c([nH]c4ccccc34)C(C3CCCCC3)N2C1=O (some centres not stated)	63 µM
CC(C)(C)N1CSC(=S)N(Cc2ccco2)C1	31.5 µM
[N-]=[N+]=NC[C@H]1OCO[C@H](CN=[N+]=[N-])[C@@H](OCCOCCCl)[C@@H]1OCCOCCCl	> 100 µM
c1ccc(-c2nc(-c3ccccc3SSc3ccccc3-c3nc(-c4ccccc4)nn3-c3ccccc3)n(-c3ccccc3)n2)cc1	> 100 µM
Cc1nc2n(c1/C=C1/C(=O)Nc3cccc(Cl)c31)CCS2	> 100 µM
C[C@@H](NC(=O)[C@@H]1C[C@]1(C)COC(=O)c1cc([N+](=O)[O-])cc([N+](=O)[O-])c1)c1cccc2ccccc12	> 100 µM

tested on: SF-539 CNS; experiment: NCI-60 cell line screen, 48 h

Structure (SMILES)	TGI
CC(C)(C)N1CSC(=S)N(Cc2ccco2)C1	2.62 µM
CC1(C)N=[N+]([O-])C1(C)C	> 100 µM
[N-]=[N+]=NC[C@H]1OCO[C@H](CN=[N+]=[N-])[C@@H](OCCOCCCl)[C@@H]1OCCOCCCl	> 100 µM
c1ccc(-c2nc(-c3ccccc3SSc3ccccc3-c3nc(-c4ccccc4)nn3-c3ccccc3)n(-c3ccccc3)n2)cc1	> 100 µM
Cc1nc2n(c1/C=C1/C(=O)Nc3cccc(Cl)c31)CCS2	35.2 µM

tested on: SK-MEL-2 melanoma; experiment: NCI-60 cell line screen, 48 h

Structure (SMILES)	TGI
CC(C)(C)OC(=O)NCCCCC1NC(=O)[C@@H]2Cc3c([nH]c4ccccc34)C(C3CCCCC3)N2C1=O (some centres not stated)	> 100 µM
CC(C)(C)N1CSC(=S)N(Cc2ccco2)C1	14.6 µM
CC1(C)N=[N+]([O-])C1(C)C	> 100 µM
